Data on 30 compounds can be found in US12486274B2, “Substituted pyrazolo-pyrimidines and uses thereof” (Verge Analytics, Inc., priority 2020, dated 2025).

Structures can show the parent of a compound that is named as a salt.

For the assay, the target named is Full length human recombinant PIKFYVE (Homo sapiens (Human), UniProt Q9Y2I7). Nature of the assay: Inhibition of PIKfyve (microfluidic electrophoresis kinase assay). It is filed as biochemical. The settings on record: 2 nM enzyme, PI3P/PS substrate, 3 h at room temperature, 12 concentrations. The method, then: Full length human recombinant PIKFYVE expressed in baculovirus expression system as N-terminal GST-fusion protein (265 kDa) was obtained from Carna Biosciences (Kobe, Japan). The kinase substrate was prepared by mixing and sonicating fluorescently-labeled phosphatidylinositol 3-phosphate (PI3P) with phospho-L-serine (PS) at a 1:10 ratio in 50 mM HEPES buffer pH7.5.
Full length human recombinant PIKFYVE, sequence (Q9Y2I7 whole entry, the tested form may be a part): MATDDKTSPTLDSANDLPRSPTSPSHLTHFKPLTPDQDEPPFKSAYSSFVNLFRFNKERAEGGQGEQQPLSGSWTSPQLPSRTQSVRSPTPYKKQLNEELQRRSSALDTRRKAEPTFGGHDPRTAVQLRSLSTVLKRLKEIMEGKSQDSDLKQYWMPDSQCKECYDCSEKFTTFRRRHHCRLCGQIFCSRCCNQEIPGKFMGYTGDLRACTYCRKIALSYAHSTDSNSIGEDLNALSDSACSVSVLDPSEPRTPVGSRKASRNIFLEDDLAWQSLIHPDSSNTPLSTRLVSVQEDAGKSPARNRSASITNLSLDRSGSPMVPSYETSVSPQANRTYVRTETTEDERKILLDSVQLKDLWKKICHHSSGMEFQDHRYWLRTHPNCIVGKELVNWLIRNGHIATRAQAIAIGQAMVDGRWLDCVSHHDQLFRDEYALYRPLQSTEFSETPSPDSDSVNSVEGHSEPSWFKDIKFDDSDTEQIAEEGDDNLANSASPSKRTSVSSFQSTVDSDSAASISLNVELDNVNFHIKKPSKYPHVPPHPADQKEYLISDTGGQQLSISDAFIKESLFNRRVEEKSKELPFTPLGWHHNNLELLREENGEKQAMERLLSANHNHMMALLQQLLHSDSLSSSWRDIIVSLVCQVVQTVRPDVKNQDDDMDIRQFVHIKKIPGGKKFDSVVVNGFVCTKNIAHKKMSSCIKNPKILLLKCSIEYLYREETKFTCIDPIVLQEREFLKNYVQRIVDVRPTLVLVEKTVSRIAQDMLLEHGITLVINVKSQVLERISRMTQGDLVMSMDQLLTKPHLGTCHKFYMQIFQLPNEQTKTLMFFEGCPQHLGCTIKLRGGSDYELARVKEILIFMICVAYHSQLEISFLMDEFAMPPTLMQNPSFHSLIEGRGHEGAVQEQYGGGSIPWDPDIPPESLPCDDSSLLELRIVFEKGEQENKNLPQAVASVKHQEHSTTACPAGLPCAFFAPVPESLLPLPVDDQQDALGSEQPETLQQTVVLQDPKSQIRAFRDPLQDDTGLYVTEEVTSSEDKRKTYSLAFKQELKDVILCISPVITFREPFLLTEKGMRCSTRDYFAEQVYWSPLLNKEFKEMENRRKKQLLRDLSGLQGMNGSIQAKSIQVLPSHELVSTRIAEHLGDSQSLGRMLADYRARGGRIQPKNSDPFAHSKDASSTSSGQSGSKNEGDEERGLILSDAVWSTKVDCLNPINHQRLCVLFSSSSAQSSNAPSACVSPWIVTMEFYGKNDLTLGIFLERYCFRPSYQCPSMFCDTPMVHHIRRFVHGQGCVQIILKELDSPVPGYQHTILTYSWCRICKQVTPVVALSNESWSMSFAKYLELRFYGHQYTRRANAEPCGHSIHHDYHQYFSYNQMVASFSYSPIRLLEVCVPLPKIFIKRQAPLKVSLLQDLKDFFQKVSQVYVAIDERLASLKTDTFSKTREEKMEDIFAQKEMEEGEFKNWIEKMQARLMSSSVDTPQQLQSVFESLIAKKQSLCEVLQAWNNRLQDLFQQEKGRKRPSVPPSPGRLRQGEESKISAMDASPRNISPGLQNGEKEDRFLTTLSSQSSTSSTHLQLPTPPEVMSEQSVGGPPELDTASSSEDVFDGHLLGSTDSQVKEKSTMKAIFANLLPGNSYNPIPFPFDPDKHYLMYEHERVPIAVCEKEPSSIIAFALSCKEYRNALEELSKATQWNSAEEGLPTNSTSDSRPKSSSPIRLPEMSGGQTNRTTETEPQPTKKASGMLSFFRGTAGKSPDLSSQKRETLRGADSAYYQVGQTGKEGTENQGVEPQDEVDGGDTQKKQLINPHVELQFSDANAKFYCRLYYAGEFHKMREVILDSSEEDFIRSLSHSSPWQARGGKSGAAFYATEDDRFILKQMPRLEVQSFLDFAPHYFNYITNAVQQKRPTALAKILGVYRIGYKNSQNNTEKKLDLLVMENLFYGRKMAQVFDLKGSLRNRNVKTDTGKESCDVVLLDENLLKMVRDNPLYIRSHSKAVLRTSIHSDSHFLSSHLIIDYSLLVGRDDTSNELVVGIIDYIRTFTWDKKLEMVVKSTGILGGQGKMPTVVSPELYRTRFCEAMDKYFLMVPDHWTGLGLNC
The kinase reactions were assembled in 384-well plates (Greiner) in a total volume of […] as follows. Kinase protein was pre-diluted in an assay buffer comprising 25 mM HEPES, pH 7.5, 1 mM DTT, 2.5 mM MgCl2, and 2.5 mM MnCl2, and 0.005% Triton X-100, and dispensed into a 384-well plate (10 μL per well). Test compounds were serially pre-diluted in DMSO and added to the protein samples by acoustic dispensing (Labcyte Echo). The concentration of DMSO was equalized to 1% in all samples. All test compounds were tested at 12 concentrations. Apilimod was used as a reference compound and was tested in identical manner in each assay plate. Control samples (0%-inhibition, in the absence of inhibitor, DMSO only) and 100%-inhibition (in the absence of enzyme) were assembled in replicates of four and were used to calculate %-inhibition in the presence of compounds. The reactions were initiated by addition of 10 μL of 2× PI3P/PS substrate supplemented with ATP. The final concentration of enzyme was 2 nM, the final concentration of ATP was 10 mM, and the final concentration of PI3P/PS substrate was 1 μM (PI3P). The kinase reactions were allowed to proceed for 3 h at room temperature. Following incubation, the reactions were quenched by addition of […] of termination buffer (100 mM HEPES, pH 7.5, 0.01% Triton X-100, 20 mM EDTA). Terminated plates were analyzed on a microfluidic electrophoresis instrument (Caliper LabChip® 3000, Caliper Life Sciences/Perkin Elmer). The change in the relative fluorescence intensity of the PI (3) P substrate and PI (3,5) P product peaks was measured. The activity in each test sample was determined as the product to sum ratio (PSR): P/(S+P), where P is the peak height of the product, and S is the peak height of the substrate. Percent inhibition (Pinh) was determined using the following equation: Pinh=(PSR0% inh−PSRcompound)/(PSR0% inh−PSR100% inh)*100 in which PSRcompound is the product/sum ratio in the presence of compound, PSR0% inh is the product/sum ratio in the absence of compound, and the PSR100% inh is the product/sum ratio in the absence of the enzyme.
Turning to `COc1cccc(-c2ccn(-c3cc(N4CCOCC4)n4nc(-c5cccnc5)cc4n3)n2)c1` [Compound 107, 4-[5-[3-(3-methoxyphenyl)pyrazol-1-yl]-2-(3-pyridyl)pyrazolo[1,5-a]pyrimidin-7-yl]morpholine], the IC50 was 7.1 nM.

On to `Cc1cccc(-c2ccn(-c3cc(N4CCOCC4)n4nc(-c5cccnc5)cc4n3)n2)n1` [Compound 108, 4-[5-[3-(6-methyl-2-pyridyl)pyrazol-1-yl]-2-(3-pyridyl)pyrazolo[1,5-a]pyrimidin-7-yl]morpholine], for which the IC50 stood at 1350 nM.

Regarding `Nc1cccc(-c2cc3nc(-n4ccc(-c5ccccc5)n4)cc(N4CCOCC4)n3n2)n1` [Compound 109, 6-[7-morpholino-5-(3-phenylpyrazol-1-yl)pyrazolo[1,5-a]pyrimidin-2-yl]pyridin-2-amine], the IC50 is 278 nM.

`Cc1cccc(-c2ccn(-c3cc(N4CCOCC4)n4nc(-c5cc(C)no5)cc4n3)n2)c1` [Compound 110, 4-[2-(3-methylisoxazol-5-yl)-5-[3-(m-tolyl)pyrazol-1-yl]pyrazolo[1,5-a]pyrimidin-7-yl]morpholine]: the IC50 was found to be 2.2 nM.

As for `Cc1cccc(-c2ccn(-c3cc(N4CCOCC4)n4nc(-c5nccs5)cc4n3)n2)c1` [Compound 111, 4-[5-[3-(m-tolyl)pyrazol-1-yl]-2-thiazol-2-yl-pyrazolo[1,5-a]pyrimidin-7-yl]morpholine], the IC50 is 2.7 nM.

As to `Cc1cccc(-c2ccn(-c3cc(N4CCOCC4)n4nc(-c5cn[nH]c5)cc4n3)n2)c1` [Compound 113, 4-[5-[3-(m-tolyl)pyrazol-1-yl]-2-(1H-pyrazol-4-yl)pyrazolo[1,5-a]pyrimidin-7-yl]morpholine], the IC50 was determined as 2.5 nM.

As to `c1ccc(-c2ccn(-c3cc(N4CCOCC4)n4nc(-c5nccs5)cc4n3)n2)cc1` [Compound 114, 4-[5-(3-phenylpyrazol-1-yl)-2-thiazol-2-yl-pyrazolo[1,5-a]pyrimidin-7-yl]morpholine], the IC50 was 100 nM.

Take `Cn1cc(-c2cc3nc(-n4ccc(-c5ccccc5)n4)cc(N4CCOCC4)n3n2)cn1` [Compound 115, 4-[2-(1-methylpyrazol-4-yl)-5-(3-phenylpyrazol-1-yl)pyrazolo[1,5-a]pyrimidin-7-yl]morpholine]: the IC50 stood at 62.4 nM.

In the case of `c1ccc(-c2ccn(-c3cc(N4CCOCC4)n4nc(-c5cn[nH]c5)cc4n3)n2)cc1` [Compound 116, 4-[5-(3-phenylpyrazol-1-yl)-2-(1H-pyrazol-4-yl)pyrazolo[1,5-a]pyrimidin-7-yl]morpholine], the concentration for half-maximal inhibition (IC50) amounted to 80.9 nM.

Consider `Cc1ccc(-c2cc(Nc3cc(N4CCOCC4)n4nc(-c5ccncc5)cc4n3)[nH]n2)cc1` [Example 1, 7-morpholino-2-(pyridin-4-yl)-N-(3-(p-tolyl)-1H-pyrazol-5-yl)pyrazolo[1,5-a]pyrimidin-5-amine, hydrogen chloride salt], for which the IC50 stood at 2590 nM.

Regarding `c1ccc(-c2cc(Nc3cc(N4CCOCC4)n4nc(-c5ccncc5)cc4n3)n[nH]2)cc1` [Example 2, 7-morpholino-N-(5-phenyl-1H-pyrazol-3-yl)-2-(4-pyridyl)pyrazolo[1,5-a]pyrimidin-5-amine], the IC50 came out at 967 nM.

For the compound `Cc1ccccc1-c1cc(Nc2cc(N3CCOCC3)n3nc(-c4ccncc4)cc3n2)n[nH]1` [Example 3, 7-morpholino-N-[5-(o-tolyl)-1H-pyrazol-3-yl]-2-(4-pyridyl)pyrazolo[1,5-a]pyrimidin-5-amine], the IC50 was 3150 nM.

For `Cc1cccc(-c2cc(Nc3cc(N4CCOCC4)n4nc(-c5ccncc5)cc4n3)[nH]n2)c1` [Example 4, 7-morpholino-N-[3-(m-tolyl)-1H-pyrazol-5-yl]-2-(4-pyridyl)pyrazolo[1,5-a]pyrimidin-5-amine, Hydrogen Chloride Salt], the IC50 was 550 nM.

`Cc1cc(Nc2cc(N3CCOCC3)n3nc(-c4ccncc4)cc3n2)n[nH]1` [Example 5, N-(5-methyl-1H-pyrazol-3-yl)-7-morpholino-2-(4-pyridyl)pyrazolo[1,5-a]pyrimidin-5-amine]: the IC50 is greater than 10000 nM.

With `c1cc(-c2cc3nc(Nc4cc(-c5ccncc5)[nH]n4)cc(N4CCOCC4)n3n2)ccn1` [Example 6, 7-morpholino-2-(4-pyridyl)-N-[5-(4-pyridyl)-1H-pyrazol-3-yl]pyrazolo[1,5-a]pyrimidin-5-amine], the IC50 worked out at 6100 nM.

For the compound `Nc1cc(-c2ccccc2)nn1-c1cc(N2CCOCC2)n2nc(-c3ccncc3)cc2n1` [Example 7, 1-(7-morpholino-2-(pyridin-4-yl)pyrazolo[1,5-a]pyrimidin-5-yl)-3-phenyl-1H-pyrazol-5-amine], the IC50 worked out at 38.4 nM.

Turning to `Cc1ccccc1-c1cc(N)n(-c2cc(N3CCOCC3)n3nc(-c4ccncc4)cc3n2)n1` [Example 8, 1-(7-morpholino-2-(pyridin-4-yl)pyrazolo[1,5-a]pyrimidin-5-yl)-3-(o-tolyl)-1H-pyrazol-5-amine], the IC50 stood at 6690 nM.

With `c1ccc(-c2cnn(-c3cc(N4CCOCC4)n4nc(-c5ccncc5)cc4n3)c2)cc1` [Example 9, 4-[5-(4-phenylpyrazol-1-yl)-2-(4-pyridyl)pyrazolo[1,5-a]pyrimidin-7-yl]morpholine], the IC50 was greater than 10000 nM.

Consider `Cc1cccc(-c2cnn(-c3cc(N4CCOCC4)n4nc(-c5ccncc5)cc4n3)c2)c1` [Example 10, 4-[5-[4-(m-tolyl)pyrazol-1-yl]-2-(4-pyridyl)pyrazolo[1,5-a]pyrimidin-7-yl]morpholine], for which the half-maximal inhibitory concentration (IC50) was greater than 10000 nM.

For `c1cc(-c2cnn(-c3cc(N4CCOCC4)n4nc(-c5ccncc5)cc4n3)c2)ccn1` [Example 11, 4-[2-(4-pyridyl)-5-[4-(4-pyridyl)pyrazol-1-yl]pyrazolo[1,5-a]pyrimidin-7-yl]morpholine], the IC50 stood at 2600 nM.

Consider `Cc1cnn(-c2cc(N3CCOCC3)n3nc(-c4ccncc4)cc3n2)c1` [Example 12, 4-[5-(4-methylpyrazol-1-yl)-2-(4-pyridyl)pyrazolo[1,5-a]pyrimidin-7-yl]morpholine], for which the half-maximal inhibitory concentration (IC50) is greater than 10000 nM.

For the compound `c1ccc(-c2ccn(-c3cc(N4CCOCC4)n4nc(-c5ccncc5)cc4n3)n2)cc1` [Example 13, 4-[5-(3-phenylpyrazol-1-yl)-2-(4-pyridyl)pyrazolo[1,5-a]pyrimidin-7-yl]morpholine], the IC50 came out at 207 nM.

On to `c1cc(-c2ccn(-c3cc(N4CCOCC4)n4nc(-c5ccncc5)cc4n3)n2)ccn1` [Example 15, 4-[2-(4-pyridyl)-5-[3-(4-pyridyl)pyrazol-1-yl]pyrazolo[1,5-a]pyrimidin-7-yl]morpholine], for which the half-inhibitory concentration (IC50) came out at 1100 nM.

Take `Cc1ccn(-c2cc(N3CCOCC3)n3nc(-c4ccncc4)cc3n2)n1` [Example 16, 4-[5-(3-methylpyrazol-1-yl)-2-(4-pyridyl)pyrazolo[1,5-a]pyrimidin-7-yl]morpholine]: the IC50 is greater than 10000 nM.

For `CCNC(=O)c1cc2nc(-n3ccc(-c4cccc(C)c4)n3)cc(N3CCOCC3)n2n1` [Example 19, N-ethyl-7-morpholino-5-(3-(m-tolyl)-1H-pyrazol-1-yl)pyrazolo[1,5-a]pyrimidine-2-carboxamide], the IC50 worked out at 76.2 nM.

In the case of `COCCNC(=O)c1cc2nc(-n3ccc(-c4cccc(C)c4)n3)cc(N3CCOCC3)n2n1` [Example 23, N-(2-methoxyethyl)-7-morpholino-5-(3-(m-tolyl)-1H-pyrazol-1-yl)pyrazolo[1,5-a]pyrimidine-2-carboxamide], the IC50 came to 81.5 nM.

Take `Cc1cccc(-c2ccn(-c3cc(N4CCOCC4)n4nc(C(=O)N(C)C)cc4n3)n2)c1` [Example 24, N,N-dimethyl-7-morpholino-5-(3-(m-tolyl)-1H-pyrazol-1-yl)pyrazolo[1,5-a]pyrimidine-2-carboxamide]: the IC50 stood at 276 nM.

For the compound `CCN(C)C(=O)c1cc2nc(-n3ccc(-c4cccc(C)c4)n3)cc(N3CCOCC3)n2n1` [Example 25, N-ethyl-N-methyl-7-morpholino-5-(3-(m-tolyl)-1H-pyrazol-1-yl)pyrazolo[1,5-a]pyrimidine-2-carboxamide], the IC50 was determined as 437 nM.

In the case of `Cc1cccc(-c2ccn(-c3cc(N4CCOCC4)n4nc(C(=O)N(C)C5CC5)cc4n3)n2)c1` [Example 26, N-cyclopropyl-N-methyl-7-morpholino-5-(3-(m-tolyl)-1H-pyrazol-1-yl)pyrazolo[1,5-a]pyrimidine-2-carboxamide], the IC50 turned out to be 162 nM.

As for `Cc1cccc(-c2ccn(-c3cc(N4CCOCC4)n4nc(C(=O)NCC5CC5)cc4n3)n2)c1` [Example 27, N-(cyclopropylmethyl)-7-morpholino-5-(3-(m-tolyl)-1H-pyrazol-1-yl)pyrazolo[1,5-a]pyrimidine-2-carboxamide], the IC50 stood at 73.7 nM.
